Entries after “also recorded” stand apart in the source; their conditions may differ.
Legend:
[1] = test system: human β2 adrenergic receptor; experiment: GRAB-EPI sensor fluorescence response (ΔF/F0) to ISO, drug perfusion in HEK293T cells; format: cell-based; conditions: GRAB-EPI 1.0 in cells, blocking agent mixed with ISO
Protocol: (§1) After DNA encoding specific GRAB sensor was introduced into cells by transfection, fluorescence imaging combined with perfusion experiment was. The imaging capture of HEK293T cells was performed using an Olympus IX81 inverted microscope, 40×NA: 1.35 oil lens, 475/28 excitation light filter, and 515LP emission light filter. The optical signal was collected by a Zyla sCMOS DG-152V-Cle FI camera (Andor), and Lambda DG-4 from Sutter Instuments company was used as a fluorescent light source. The exposure time was set to less than 50 ms and the acquisition frequency was 5 seconds. The entire imaging system was overall controlled by micromanager software.
The detection of the response of the GRAB sensor to the ligand (ΔF/F0) was performed using a drug perfusion method. […]
Fluorescence imaging data was processed using ImageJ software. For the performance of GRAB sensors in HEK293T cells and neurons, the fluorescence of entire cell body was selected as the data processing region. For living Drosophila imaging, fluorescence images on the same Z axis were analyzed by ImageJ software. The change in the fluorescence signal was indicated by its relative difference. The signal of background area without the expression of the sensor was first subtracted from the fluorescence signal, so as to obtain the real expression of the intensity of the fluorescent protein. […]

[2] = test system: human acetylcholine receptor M3R subtype; experiment: GRAB-ACh 1.0 in acute mouse hippocampus brain slices, local perfusion, two-photon imaging; format: cell-based, mice; conditions: GRAB-ACh 1.0 expressing cells in brain slices
Description: The DNA encoding GRAB-ACh 1.0 sensor was packed in lentivirus and expressed in the hippocampal neurons of mice, and its fluorescence performance was detected by local perfusion of acetylcholine.

[3] = test system: human acetylcholine receptor M3R subtype; experiment: GRAB-ACh sensor fluorescence response to ACh, drug perfusion in HEK293T cells; format: cell-based; conditions: GRAB-ACh 1.0 in cells, blocking agent mixed with ACh
Protocol: as §1
The detection of the response of the GRAB sensor to the ligand (ΔF/F0) was performed using a drug perfusion method. The cells were placed in a standard physiological solution, and the formula thereof is: […]
The pH of the physiological solution was adjusted to about 7.4, and the small molecule drug was diluted with a part of the physiological solution to formulate solutions of respective concentrations of the small molecule ligand. […] Unless explicitly specified, the concentration of isoproterenol (ISO) for perfusion was 2 μM, and the concentration of acetylcholine for perfusion was 100 μM.
The perfusion system was equipped on a microscope, including a solution-introduced system made of syringe for injection, a multi-way valve, an imaging workbench and a suction pump. During the perfusion process, the imaging workbench was placed above the objective lens of the inverted microscope, and then the slide on which cell plated were placed in the workbench. Perfusion of different drugs were performed by controlling the switches of different pipes. In order to control the level of the solution in the workbench, the perfusion speed was set to one drop or so per second. After each drug treatment, the cells were washed with a physiological solution for more than five minutes to ensure that there were no residual drugs that will affect subsequent experiments. After the end of each experiment, the perfusion pipe and the workbench were cleaned with 75% ethanol three times to ensure that the residual drugs and impurities were fully washed away.
Fluorescence imaging data was processed using ImageJ software. For the performance of GRAB sensors in HEK293T cells and neurons, the fluorescence of entire cell body was selected as the data processing region. For living Drosophila imaging, fluorescence images on the same Z axis were analyzed by ImageJ software. The change in the fluorescence signal was indicated by its relative difference. The signal of background area without the expression of the sensor was first subtracted from the fluorescence signal, so as to obtain the real expression of the intensity of the fluorescent protein. Then, by calculating the fluorescence value F after adding the drug and the average fluorescence value F0 before adding, the relative fluorescence change ΔF/F=(F−F0)/F0 was obtained as the fluorescence response of the sensor to a specific drug. The change of ΔF/F0 with time was further plotted by Origin 8.6 software.
Based on GRAB-ACh 1.0, this peptide linker was optimized. First, based on a flexible amino acid (glycine, alanine), the peptide segment was screened for optimal length. The specific strategy was to change the length of the peptide linkers at the N-terminus and C-terminus from 0 to 5 amino acids, respectively, and to randomly combine the N-terminus with C-terminus to obtain all possible permutations. Fusion protein expression vectors containing various arrangements were expressed in HEK293T cells and subjected to perfusion experiments.

[4] = test system: Gαq-mediated signal transduction pathway; experiment: TGFα release in Gαq stable cell lines; format: cell-based
Description: The coupling of GRAB-ACh4.0 and downstream Gαq was detected. First, three stable cell lines were constructed based on the Gαq cell line: M3R (marked as CHRM3 in FIG. 51), GRAB-ACh4.0, and blank (marked as Gq in FIG. 51) cell lines; then, the release of TGFα was used to characterize the extent to which the Gαq protein was activated. […], causing the release of TGF-α with alkaline phosphatase even when there is no signal from Gαq. Therefore, TPA was added to cells as a positive control.

[5] = test system: human acetylcholine receptor M3R subtype; experiment: GRAB-ACh 1.0 in cultured rat cortical neurons, perfusion; format: cell-based
Protocol: Newborn Sprague-Dawley rats were used for the primary culture of rat neurons. After the skin of rat was cleaned with alcohol, the head was dissected with surgical instruments, the brain was removed out and the vascular membrane on the surface of the cortex was carefully removed. The cortical tissue was cut into pieces and placed in a 0.25% trypsin solution, and digested for 10 minutes in an incubator at 37° C. After the digestion, the digestion was terminated with DMEM medium containing 5% FBS, and the cells were further isolated by slowly pipetting up and down ten times with a pipette. After standing for 5 minutes, the pellet containing the tissue debris was discarded and the upper layer solution was collected and centrifuged at 1,000 rpm for 5 minutes in a centrifuge. Thereafter, the supernatant was discarded and the neurons were resuspended with the Neurobasal+B27 medium which was used for culturing the neurons. The cell density was calculated using a cell counting chamber. After that, the cells were diluted at a density of 0.5-1×10^6 cells/ml and plated on the slides coated with poly-lysine (purchased from Sigma). […]
The optical response of neurons expressing the neurotransmitter sensor was observed by perfusion with a neurotransmitter solution. The neurotransmitter-specific optical signals were recorded, which were fast and stable, and have good repeatability in different neurons. […]

[6] = test system: human DRD2 receptor; experiment: GRAB-GDA3.0 fluorescence response in HEK293T cells, drug perfusion; format: cell-based; conditions: saturated concentration of dopamine, HEK293T cells
Description: There are 5 subtypes of human dopamine receptors in the body, which are named DRD1-DRD5. For constructing a fluorescent sensor, the receptors were screened preliminarily by inserting a fluorescent protein at any position in the third intracellular loop of the receptor. […] Specifically, for the third intracellular loop of the human DRD2 receptor, the insertion sites were set every 15 amino acids. Human DRD2 receptors inserted with circular permutated fluorescent proteins at different positions were expressed in HEK293T cells, and drug perfusion experiments were conducted with dopamine. […] After the positions sensitive to conformational change were determined, the surrounding amino acid sites thereof were further screened. The sites surrounding the amino acid position 252 at N-terminus and the sites surrounding the amino acid position 357 at the C-terminus were combined and different sensors were constructed. The sensors were expressed in HEK293T cells and subjected to drug perfusion experiments with dopamine. […] The peptide linkers were GG at the N-terminus and GGAAA at the C-terminus.

[7] = test system: GRAB-GDA3.0 signal in mushroom body (MB); experiment: Odor-stimulated GRAB-GDA3.0 signal in mushroom body, in vivo two-photon imaging; set-up: species or system Drosophila
Protocol: Drosophila were kept in a 25-degree incubator with a standard medium. […] The adult Drosophila to be tested were transferred to a new culture tube within 0-2 days after emergence, and left at room temperature for 8-12 days. Before the imaging, the Drosophila were first fixed in a small dish, and then the square skull part near the eye was surgically removed to expose part of the brain. The adipose tissue and air sacs near the antennal lobes to be imaged were surgically removed to prevent interference with the fluorescent signal. In order to further reduce the degradation of image quality caused by the movement of Drosophila during the imaging, surgical forceps were used to cut the muscles underneath its halter. Throughout the dissection and imaging procedures, the brain of Drosophila was kept in a pre-chilled physiological solution, and the formula thereof is as follows: […]
Drosophila imaging was performed using an Olympus two-photon microscope, including Olympus BX61 WI microscope, 25×NA: 1.05 water lens, and Ti:Sapphire laser mode-locked laser for two-photon excitation. For GRAB sensor imaging experiments, the wavelength of the […] was set to 950 nm in order to successfully excite the fluorescent protein to produce fluorescence. The odor molecule isoamyl acetate (IA) used for stimulating Drosophila was purchased from Sigma, and was diluted in mineral oil at a ratio of 1:100. In the experiment, the isoamyl acetate was further diluted 5-40 times by mixing with air. The air mixed with odor molecules was provided at a position about 1 cm away from the tentacles of the Drosophila through a cavity about 1 cm wide on the experimental table. The odor molecule of different concentrations was tested by controlling the airflow. Each imaging cycle was 17.8 seconds, of which 5 to 10 seconds was the time for providing specific odor molecules. After the imaging experiment for odor function, the imaging area was scanned layer by layer with high resolution setting to obtain the distribution information of the olfactory bulb, which was later identified based on the information of olfactory bulb distribution at the antennal lobe reported in the literature.
The transgenic Drosophila UAS-GRAB-GDA3.0 was constructed to express the GRAB-GDA3.0 sensor in specific cells, driven by the corresponding GAL4 strain. First, GRAB-GDA3.0 was expressed in dopaminergic neurons (DAN) in all Drosophila, and the response induced by odor (isoamyl acetate) was examined by in vivo two-photon imaging (FIG. 39A).
A pharmacological study was performed on GRAB-GDA3.0.
The rate of GDA signal attenuation between normal Drosophila and Drosophila with reduced DAT expression was compared (this is the experiment of gene level research using DAT-RNAi described later). In DAN, the dopamine transporter (DAT) is located in the presynaptic membrane and […] DA intermittently and cyclically from the synapse. DAT-RNAi was used to inhibit DAT expression in DAN (FIG. 40G).

[8] = biological target: GRAB-Oxt-Cter580 sensor (human); experiment: cell-based or functional assay
GRAB-Oxt-Cter580 sensor (human), sequence (chain, as listed by the source limits assumed): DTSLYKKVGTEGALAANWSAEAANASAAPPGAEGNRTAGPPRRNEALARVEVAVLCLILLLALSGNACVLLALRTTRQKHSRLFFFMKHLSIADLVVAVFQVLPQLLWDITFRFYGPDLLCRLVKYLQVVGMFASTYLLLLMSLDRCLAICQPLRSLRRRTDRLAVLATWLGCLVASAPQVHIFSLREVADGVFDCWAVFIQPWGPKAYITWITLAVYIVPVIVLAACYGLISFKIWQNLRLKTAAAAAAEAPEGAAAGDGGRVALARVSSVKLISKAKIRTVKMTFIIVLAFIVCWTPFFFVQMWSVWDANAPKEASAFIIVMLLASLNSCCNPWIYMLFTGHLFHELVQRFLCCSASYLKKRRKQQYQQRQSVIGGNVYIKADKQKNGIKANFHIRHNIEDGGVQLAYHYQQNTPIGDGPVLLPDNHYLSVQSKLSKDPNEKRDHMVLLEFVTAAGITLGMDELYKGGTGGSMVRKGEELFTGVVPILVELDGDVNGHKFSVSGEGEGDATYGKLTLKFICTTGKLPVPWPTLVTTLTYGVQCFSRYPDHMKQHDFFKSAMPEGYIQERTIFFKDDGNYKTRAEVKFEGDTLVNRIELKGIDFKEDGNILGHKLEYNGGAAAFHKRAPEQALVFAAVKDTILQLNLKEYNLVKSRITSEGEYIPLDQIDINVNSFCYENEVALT

GRAB-GDA3.0 signal in mushroom body (MB), sequence (as listed by the source): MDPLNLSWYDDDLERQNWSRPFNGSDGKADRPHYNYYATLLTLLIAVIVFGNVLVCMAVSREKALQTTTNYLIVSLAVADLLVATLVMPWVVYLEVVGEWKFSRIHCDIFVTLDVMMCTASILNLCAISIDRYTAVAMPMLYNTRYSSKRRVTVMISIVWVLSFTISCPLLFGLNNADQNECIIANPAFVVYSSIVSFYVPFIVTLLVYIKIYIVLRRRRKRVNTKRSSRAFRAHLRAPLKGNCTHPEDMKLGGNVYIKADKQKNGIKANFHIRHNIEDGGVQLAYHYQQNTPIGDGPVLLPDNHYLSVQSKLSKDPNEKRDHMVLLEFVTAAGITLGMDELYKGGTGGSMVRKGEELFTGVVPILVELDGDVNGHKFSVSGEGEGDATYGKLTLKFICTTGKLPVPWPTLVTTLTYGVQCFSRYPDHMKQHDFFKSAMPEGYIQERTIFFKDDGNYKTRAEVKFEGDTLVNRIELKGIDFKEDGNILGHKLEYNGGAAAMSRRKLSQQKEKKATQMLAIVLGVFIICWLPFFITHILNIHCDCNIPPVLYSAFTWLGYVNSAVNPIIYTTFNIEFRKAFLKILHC
human DRD2 receptor, sequence (as listed by the source): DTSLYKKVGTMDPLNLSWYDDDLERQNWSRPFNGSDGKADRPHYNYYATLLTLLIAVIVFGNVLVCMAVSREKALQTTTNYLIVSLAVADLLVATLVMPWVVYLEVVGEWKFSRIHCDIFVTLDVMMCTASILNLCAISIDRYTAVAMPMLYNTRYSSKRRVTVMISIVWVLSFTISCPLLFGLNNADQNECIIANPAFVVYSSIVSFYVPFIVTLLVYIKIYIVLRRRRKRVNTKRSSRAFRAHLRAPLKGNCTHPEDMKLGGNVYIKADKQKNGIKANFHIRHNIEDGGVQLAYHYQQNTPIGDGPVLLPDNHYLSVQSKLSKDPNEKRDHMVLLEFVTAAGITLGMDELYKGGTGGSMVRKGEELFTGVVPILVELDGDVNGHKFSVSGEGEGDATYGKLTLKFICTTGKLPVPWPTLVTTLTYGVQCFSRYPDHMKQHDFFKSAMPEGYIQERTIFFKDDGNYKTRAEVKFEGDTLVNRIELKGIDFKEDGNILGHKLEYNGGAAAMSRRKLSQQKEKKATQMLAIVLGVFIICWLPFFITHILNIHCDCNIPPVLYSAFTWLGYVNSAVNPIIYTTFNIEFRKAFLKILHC

For Cc1ccc(OCC(O)C(C)NC(C)C)c2c1CCC2 (stereo not shown) [ICI], the “effect of blocking agent on agonist (ISO)-induced fluorescence increase” value [1] was “specifically blocked”.

For C[N+](C)(C)CC#CCN1CCCC1=O [Oxo-M], the “fluorescence response to agonist” value [2] was “respond to; also recorded: obvious fluorescence enhancement”.

For C[N+]1(C)[C@@H]2C[C@@H](OC(=O)C(O)(c3cccs3)c3cccs3)C[C@H]1[C@@H]1O[C@@H]12 [Tio, Tiotropium bromide], the “effect of blocking agent on ligand (Ach)-induced fluorescence increase” value [3] was “specifically blocked”, the “effect of antagonist on downstream signal induced by M3R” value ([4]; ACh) was “completely block” and the “effect of receptor blocker on response to acetylcholine” value [5] was “can block”.

For “GRAB-GDA3.0: human DRD2 receptor, positions 254 to 360 truncated, cpEGFP inserted, linkers GG-GGAAA, SEQ ID NO: 26”, the signal change [6] was 110%, the “decay τ of odor-induced GDA signal” value ([7]; DAT-RNAi Drosophila) was 1.85 s and the “decay τ of odor-induced GDA signal” value ([7]; WT Drosophila) was 0.48 s.

Work on “Oxytocin (from UniProt P01178 20-28) (peptide)” yielded a change in fluorescence signal (ΔF/F0) of the sensor on perfusion with the agonist (% ΔF/F0 at 1 µM Oxytocin) [8] of 10.

In the case of “WT-M3R: natural M3 type acetylcholine receptor without cpEGFP insertion”, the “activation of Gαq-mediated signal transduction pathway” value ([4]; gradient concentrations of ACh) is reported as “activated the Gαq-mediated signal transduction pathway”.

Source: patent US20200400567A1, “FUSION POLYPEPTIDE” (PEKING UNIVERSITY, priority 2017, published 2020)
